The values below come from patent US8470820B2, “Nitrogen-containing heteroaryl derivatives” (Hoffman-La Roche Inc., priority 2010, dated 2013).

Usually IC50 stands for the concentration at which inhibition is half-maximal.

Experiment [1] deals with human PDE10A (Homo sapiens (Human), UniProt Q9Y233). Put plainly: human PDE10A full length Scintillation Proximity Assay (SPA). The class given is biochemical. The settings on record: 50 nM cGMP and 50 nM [3H]-cGMP, 20 minutes at room temperature, read-out: PDE10A inhibition IC50.
The test system of experiment [2] is rats. The settings on record: sub-chronic treatment with PCP (NMDA receptor hypofunction paradigm); cited from earlier work.

Chain of human PDE10A (Q9Y233 other isoform, or with tags, fused parts or gaps): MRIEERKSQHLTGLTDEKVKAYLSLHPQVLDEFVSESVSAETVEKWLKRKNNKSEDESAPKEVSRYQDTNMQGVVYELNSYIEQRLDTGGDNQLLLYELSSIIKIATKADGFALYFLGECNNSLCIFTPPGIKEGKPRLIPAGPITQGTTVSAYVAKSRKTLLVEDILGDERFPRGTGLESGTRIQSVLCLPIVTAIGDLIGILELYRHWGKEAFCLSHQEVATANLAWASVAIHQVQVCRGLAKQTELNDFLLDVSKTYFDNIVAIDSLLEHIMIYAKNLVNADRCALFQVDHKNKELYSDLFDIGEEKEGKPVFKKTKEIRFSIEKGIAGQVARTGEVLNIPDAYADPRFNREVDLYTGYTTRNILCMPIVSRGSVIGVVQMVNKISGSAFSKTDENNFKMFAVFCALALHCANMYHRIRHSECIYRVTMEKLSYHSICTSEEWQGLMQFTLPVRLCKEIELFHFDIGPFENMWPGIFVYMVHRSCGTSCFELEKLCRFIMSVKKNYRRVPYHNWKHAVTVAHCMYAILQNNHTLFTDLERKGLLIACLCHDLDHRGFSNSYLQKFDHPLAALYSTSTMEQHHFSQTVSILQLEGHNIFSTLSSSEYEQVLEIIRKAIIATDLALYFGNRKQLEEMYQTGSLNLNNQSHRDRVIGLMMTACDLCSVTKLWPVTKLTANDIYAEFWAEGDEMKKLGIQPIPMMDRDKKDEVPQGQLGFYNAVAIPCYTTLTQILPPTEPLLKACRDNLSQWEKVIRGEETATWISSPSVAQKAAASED

Regarding `O=C(Nc1cc(-c2ccc(Br)cc2)no1)c1nc(C2CC2)ccc1Nc1cncnc1` [Example 57, 6-Cyclopropyl-3-(pyrimidin-5-ylamino)-pyridine-2-carboxylic acid [3-(4-bromo-phenyl)-isoxazol-5-yl]-amide], in experiment [1], the IC50 is 781 nM. For `O=C(Nc1cc(-c2ccc(F)cc2)no1)c1nc(C2CC2)ccc1Nc1cncnc1` [Example 58, 6-Cyclopropyl-3-(pyrimidin-5-ylamino)-pyridine-2-carboxylic acid [3-(4-fluoro-phenyl)-isoxazol-5-yl]-amide], in experiment [1], the half-inhibitory concentration (IC50) was determined as 2450 nM. In the case of `COCc1ccc(Nc2cncnc2)c(C(=O)Nc2cc(-c3ccccn3)nn2C)n1` [Example 59, 6-Methoxymethyl-3-(pyrimidin-5-ylamino)-pyridine-2-carboxylic acid (2-methyl-5-pyridin-2-yl-2H-pyrazol-3-yl)-amide], the IC50 in experiment [1] is 7 nM. As to `Cn1nc(-c2ccccn2)cc1NC(=O)c1nc(C2CCCCC2)ncc1Nc1cncnc1` [Example 60, 2-Cyclohexyl-5-(pyrimidin-5-ylamino)-pyrimidine-4-carboxylic acid (2-methyl-5-pyridin-2-yl-2H-pyrazol-3-yl)-amide], in experiment [1], the IC50 was determined as 6 nM. Consider `CC(C)Cc1ncc(Nc2cncnc2)c(C(=O)Nc2cc(-c3ccccn3)nn2C)n1` [Example 61, 2-Isobutyl-5-(pyrimidin-5-ylamino)-pyrimidine-4-carboxylic acid (2-methyl-5-pyridin-2-yl-2H-pyrazol-3-yl)-amide], for which, in experiment [1], the IC50 came to 28 nM. Consider `O=C(Nc1cnc(-c2ccccn2)s1)c1nc(C2CC2)ccc1Nc1cncnc1` [Example 62, 6-Cyclopropyl-3-(pyrimidin-5-ylamino)-pyridine-2-carboxylic acid (2-pyridin-2-yl-thiazol-5-yl)-amide], for which the IC50 in experiment [1] came to 2 nM. With `Cn1nc(NC(=O)c2nc(C3CC3)ccc2Nc2cncnc2)cc1-c1ccccn1` [Example 63, 6-Cyclopropyl-3-(pyrimidin-5-ylamino)-pyridine-2-carboxylic acid (1-methyl-5-pyridin-2-yl-1H-pyrazol-3-yl)-amide], in experiment [1], the IC50 was determined as 327 nM. On to `O=C(Nc1nnc(-c2ccccn2)o1)c1nc(C2CC2)ccc1Nc1cncnc1` [Example 64, 6-Cyclopropyl-3-(pyrimidin-5-ylamino)-pyridine-2-carboxylic acid (5-pyridin-2-yl-[1,3,4]oxadiazol-2-yl)-amide], for which the half-maximal inhibitory concentration (IC50) in experiment [1] is 2040 nM.

Consider `O=C(Nc1cnn(-c2ccccn2)c1)c1nc(C2CC2)ccc1Nc1cncnc1` [Example 65, 6-Cyclopropyl-3-(pyrimidin-5-ylamino)-pyridine-2-carboxylic acid (1-pyridin-2-yl-1H-pyrazol-4-yl)-amide], for which, in experiment [1], the IC50 is 55 nM. With `O=C(Nc1cn(-c2ccccn2)cn1)c1nc(C2CC2)cnc1Nc1cncnc1` [Example 66, 6-Cyclopropyl-3-(pyrimidin-5-ylamino)-pyrazine-2-carboxylic acid (1-pyridin-2-yl-1H-imidazol-4-yl)-amide], the IC50 in experiment [1] stood at 187 nM.

As to `COc1ccc(Cc2nccc3cc(OC)c(OC)cc23)cc1OC` [papaverine, Papaverine], in experiment [2], the “effect on deficits in extra-dimensional shift learning” value was “attenuate the deficits in the extra-dimensional shift learning”.
